Assay results: PubChem BioAssay (NCI)
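Growth conditions: 96-well plates. Treatment: test compound, 48 hours, 5 concentrations. Analysis: linear interpolation between bracketing concentrations; unreached endpoints set to highest concentration. At the GI50, growth is halved. At the TGI there is no net growth.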

Legend:
Assay in all cases: DTP human tumour cell line panel, 48 h
BT-549 breast = test system: BT-549 breast
COLO 205 colon = test system: COLO 205 colon
HOP-62 NSCLC = test system: HOP-62 NSCLC
MALME-3M melanoma = test system: MALME-3M melanoma
MCF7 breast = test system: MCF7 breast
MDA-MB-231 breast = test system: MDA-MB-231 breast
NCI-H23 lung = test system: NCI-H23 lung
SF-295 CNS = test system: SF-295 CNS
SK-OV-3 ovarian = test system: SK-OV-3 ovarian
SR leukemia = test system: SR leukemia

SMILES | GI50 (BT-549 breast) | TGI (BT-549 breast) | GI50 (COLO 205 colon) | TGI (COLO 205 colon) | GI50 (HOP-62 NSCLC) | TGI (HOP-62 NSCLC) | GI50 (MALME-3M melanoma) | TGI (MALME-3M melanoma) | GI50 (MCF7 breast) | TGI (MCF7 breast) | GI50 (MDA-MB-231 breast) | TGI (MDA-MB-231 breast) | GI50 (NCI-H23 lung) | TGI (NCI-H23 lung) | GI50 (SF-295 CNS) | TGI (SF-295 CNS) | GI50 (SK-OV-3 ovarian) | TGI (SK-OV-3 ovarian) | GI50 (SR leukemia) | TGI (SR leukemia)
C=C1C(O)C2CC(C)(CO)C(=O)C2=C(CC(C)C)C12CC2 (stereo not given) | > 100000 nM | > 100 µM | > 100000 nM | > 100 µM | > 100000 nM | > 100 µM | 28.3 µM | > 100 µM | 63900 nM | > 100 µM | > 100 µM | > 100 µM | > 100 µM | > 100 µM | 57100 nM | > 100 µM | > 100000 nM | > 100 µM | 40800 nM | > 100 µM
COc1ccc(-c2cncn2-c2cc(OC)c(OC)c(OC)c2)cc1 | 249 nM | 52 µM | 103 nM | 9.7 µM | 101 nM | > 71.6 µM | < 0.0163 µM | – | – | > 34.8 µM | 0.465 µM | 25.7 µM | 0.659 µM | > 43.7 µM | 31.1 nM | > 14.8 µM | 256 nM | > 86.5 µM | 2090 nM | 6.59 µM
COC(=O)c1c(-c2cccs2)oc(-c2cccs2)c1C(=O)OC | 52000 nM | > 100 µM | 26700 nM | > 86.3 µM | 32800 nM | > 100 µM | 25 µM | 64 µM | 13200 nM | > 100 µM | 34 µM | > 94.5 µM | 29.6 µM | 97.7 µM | 19400 nM | 51.8 µM | > 100000 nM | > 100 µM | > 100000 nM | > 100 µM
CS(=O)(=O)Nc1cccc(-c2ccc3ncnc(Nc4ccc(F)c(Cl)c4)c3c2)c1 | 1810 nM | 4.54 µM | 1600 nM | 3.35 µM | 1810 nM | 4.2 µM | 1.97 µM | 5.1 µM | 1560 nM | 6.93 µM | 1.4 µM | 3.45 µM | 2.15 µM | 6.57 µM | 1470 nM | 3.08 µM | 233 nM | 1.38 µM | 1430 nM | 5.32 µM
COc1cc(OC)cc(C2C3=C(COC3=O)Nc3cc(OC)ccc32)c1 (stereo not given) | 13.8 nM | > 100 µM | < 10 nM | < 0.01 µM | < 10 nM | 21.7 µM | 13.5 µM | > 100 µM | < 10 nM | 19.9 µM | < 0.0128 µM | – | < 0.01 µM | > 43.7 µM | < 10 nM | 28.2 µM | < 10 nM | < 0.01 µM | < 10 nM | –
COC(=O)Nc1nc2ccccc2[nH]1 | – | > 100 µM | – | > 100 µM | – | > 100 µM | – | > 100 µM | – | > 100 µM | – | > 100 µM | – | > 56.2 µM | – | 32.9 µM | – | > 31.5 µM | – | > 100 µM
COc1cccc2cc(N(C)c3nc(C)nc4c3CCC4)ccc12 | < 10 nM | 11 µM | < 10 nM | < 0.01 µM | < 10 nM | 13.1 µM | 12 µM | 27.9 µM | < 10 nM | 14.6 µM | < 0.01 µM | 14.7 µM | < 0.01 µM | 18 µM | < 10 nM | 12.5 µM | < 10 nM | – | < 10 nM | 11.3 µM
O=C(CN(/C=C/C(=O)C(F)(F)F)c1ccc(Cl)cc1)c1ccc(Cl)c(Cl)c1 | 16700 nM | 33.3 µM | 14200 nM | 39.4 µM | 11500 nM | 23.8 µM | 9.98 µM | 22.3 µM | 3420 nM | 16.6 µM | 7.05 µM | 20.9 µM | 6.1 µM | 19.2 µM | 4980 nM | 17.4 µM | 17100 nM | 35.2 µM | 2260 nM | 6.96 µM
N#CC1=C(N)Oc2c(ccc3ccccc23)C1c1cc(=O)oc2ccc(Cl)cc12 (stereo not given) | 1300 nM | 61.8 µM | 1950 nM | 8.27 µM | 672 nM | > 100 µM | 18.1 µM | 67.8 µM | 347 nM | 22.1 µM | 4.36 µM | > 100 µM | 4.96 µM | > 100 µM | 398 nM | 20.1 µM | 965 nM | > 100 µM | 449 nM | > 100 µM
